The supplement of paper PMC6723410

System: GUMC-403
Experiment: AC50 for reduction of cell viability; higher = less potent
Settings: library / dose series: MIPE library, 11-point 1:3 dilution; 48 h

| Structure (SMILES) | AC50 for reduction of cell viability [µM] |
| --- | --- |
| C[C@H]1O[C@H](C[C@H](O)[C@@H]1O)O[C@H]2[C@@H](O)C[C@@H](O[C@@H]2C)O[C@H]3[C@@H](O)C[C@@H](O[C@@H]3C)O[C@H]4CC[C@@]5(C)[C@H](CC[C@@H]6[C@@H]5C[C@@H](O)[C@]7(C)[C@H](CC[C@]67O)C/8=C/C(=O)OC8)C4 | 0.191 |
| CN(C)c1ccc2nc3ccc(N(C)C)cc3[s+]c2c1 | 7.43 |
| CC(C)C[C@H](NC(=O)CNC(=O)c1cc(Cl)ccc1Cl)B1OC(=O)CC(CC(=O)O)(C(=O)O)O1 (stereo partly drawn) | 2.35 |
| CCc1c(O)cc(O)c(C(=O)c2ccc(OCCN3CCOCC3)c(OC)c2)c1CC(=O)N(CCOC)CCOC | 2.09 |
| Cc1ccc2nc(NCCN)c3ncc(C)n3c2c1 | 13.2 |
| CC/C(=C(/c1ccc(O)cc1)c1ccc(OCCNC)cc1)c1ccccc1 | 23.5 |
| CN1CCN(c2cc(C(=O)Nc3ccc4c(c3)-c3c(c(C(N)=O)nn3-c3ccc(F)cc3)CC4)c(Cl)cn2)CC1 | 5.26 |
| COc1cc2ncn(-c3cc(OCc4ccccc4C(F)(F)F)c(C(N)=O)s3)c2cc1OC | 23.5 |
| CC[P](CC)(CC)=[Au][S][C@@H]1O[C@H](COC(C)=O)[C@@H](OC(C)=O)[C@H](OC(C)=O)[C@H]1OC(C)=O | 9.35 |

Same assay, conditions: library / dose series: NPC library, 8-point 1:5 dilution; 48 h

| Structure (SMILES) | AC50 for reduction of cell viability [µM] |
| --- | --- |
| CCCCCNC(=N)N/N=C/c1c[nH]c2ccc(OC)cc12 | 18.8 |
| CCN(CC)C(=S)SSC(=S)N(CC)CC | 24.8 |
| COc1cccc2c1C(=O)c1c(O)c3c(c(O)c1C2=O)C[C@@](O)(C(=O)CO)C[C@@H]3O[C@H]1C[C@H](N)[C@H](O)[C@H](C)O1.Cl | 11.9 |
| [Cl-].C/[N+](C)=C1\C=C\C(C=C1)=C(/c2ccc(cc2)N(C)C)c3ccc(cc3)N(C)C | 13.3 |
| Cc1nc(Nc2ncc(C(=O)Nc3c(C)cccc3Cl)s2)cc(N2CCN(CCO)CC2)n1 | 0.0841 |
| COc1cccc2c1C(=O)c1c(O)c3c(c(O)c1C2=O)C[C@@](O)(C(=O)CO)CC3OC1CC(N2CCOC(OC)C2)C(O)C(C)O1 (stereo partly drawn) | 0.0211 |
| CCCCCCCCCCCC[N+](C)(C)CCOc1ccccc1.[Br-] | 26.6 |
| CC(O)C(=O)O.CCOc1ccc2nc3cc(N)ccc3c(N)c2c1.O | 18.8 |
| Cc1cc(OCCOCC[N+](C)(C)Cc2ccccc2)ccc1C(C)(C)CC(C)(C)C.[Cl-] | 23.7 |
| CCCCCCCCCCCCCC[N+](C)(C)C.[Br-] | 26.6 |
| N=C(N/N=C\c1ccc(Cl)cc1)N/N=C/c1ccc(Cl)cc1 | 8.41 |
| CCN1C(=CC=Cc2ccc3ccccc3[n+]2CC)C=Cc2ccccc21.[I-] | 2.66 |
| CN(C)c1ccc2nc3ccc(N(C)C)cc3[s+]c2c1.[Cl-] | 26.6 |
| CCN(CC)CCNc1ccc(CO)c2sc3ccccc3c(=O)c12 | 26.6 |
| CCN(CC)CCCC(C)Nc1c2ccc(Cl)cc2nc2ccc(OC)cc12.Cl.Cl.O.O (stereo not drawn) | 21.1 |
| CC(=O)Oc1ccc(C2(c3ccc(OC(C)=O)cc3)C(=O)Nc3ccccc32)cc1 | 0.841 |
| Oc1c(Cl)cc(Cl)c(Cl)c1Cc1c(O)c(Cl)cc(Cl)c1Cl | 16.8 |
| C/C(C)=C\CNc3ncnc1c3ncn1[C@@H]2O[C@H](CO)[C@@H](O)[C@H]2O | 9.44 |
| C=C[C@@]1(C)CC(=O)[C@]2(O)[C@@]3(C)[C@@H](O)CCC(C)(C)[C@@H]3[C@H](O)[C@H](OC(C)=O)[C@@]2(C)O1 | 1.68 |
| O=C1NCCN1CCN1CCC(c2cn(-c3ccc(F)cc3)c3ccc(Cl)cc23)CC1 | 2.66 |
| C#Cc1cccc(Nc2ncnc3cc(OCCOC)c(OCCOC)cc23)c1 | 0.106 |
| C[C@H]1O[C@@H](O[C@H]2[C@@H](O)C[C@H](O[C@H]3[C@@H](O)C[C@H](O[C@H]4CC[C@@]5(C)[C@H](CC[C@@H]6[C@@H]5CC[C@]5(C)[C@@H](C7=CC(=O)OC7)CC[C@]65O)C4)O[C@@H]3C)O[C@@H]2C)C[C@H](O)[C@@H]1O | 0.237 |
| CCCCC(CC)CNC(=N)NC(=N)NCCCCCCNC(=N)NC(=N)NCC(CC)CCCC.Cl.Cl (stereo not drawn) | 2.66 |
| CN(C)C(=S)SC(=S)N(C)C | 5.31 |
| CC(C)C[C@H](NC(=O)[C@H](CCc1ccccc1)NC(=O)CN1CCOCC1)C(=O)N[C@@H](Cc1ccccc1)C(=O)N[C@@H](CC(C)C)C(=O)[C@@]1(C)CO1 | 1.19 |
| Cc1cc2nc3ccc(N(C)C)cc3[s+]c2cc1N.[Cl-] | 18.8 |
| Cc1cc(N)c2cc(NC(=O)Nc3ccc4nc(C)cc(N)c4c3)ccc2n1.Cl.Cl | 3.76 |
| C[C@@H]1O[C@@H](O[C@H]2C[C@@H](O)[C@]3(CO)[C@H]4[C@H](O)C[C@]5(C)[C@@H](C6=CC(=O)OC6)CC[C@]5(O)[C@@H]4CC[C@]3(O)C2)[C@H](O)[C@H](O)[C@H]1O | 0.075 |
| CCOC(=O)[C@@](C)(N)Cc1ccc(O)c(O)c1.Cl | 6.68 |
